Source: US20030170297A1, “Lipid-based drug delivery systems containing phospholipase a2 degradable lipid derivatives for topical application to the skin” (priority 2000, published 2003)
“And” between values parts separate entries of the source, which are not always exact repeats. Equal entries are not always repeated.

Experiments:
[1] = biological target: T1, phospholipase A2 (A. piscivorus piscivorus) (Agkistrodon piscivorus piscivorus, UniProt P51972)
T1 sequence (P51972 1-123): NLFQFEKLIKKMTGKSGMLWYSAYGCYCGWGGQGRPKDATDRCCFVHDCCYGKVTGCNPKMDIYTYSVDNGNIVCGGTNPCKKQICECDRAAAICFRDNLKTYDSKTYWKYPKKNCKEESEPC
Procedure: The hydrolysis of micelles composed DSPE-PEG750 was followed by analysis of the amount of stearic acid generated. The catalytic reaction was initiated by adding 8.9 μL of a 42 μM PLA2 (150 nM) stock solution to 2.5 ml a thermostated micelle suspension of DSPE-PEG750 (0.150 mM) equilibrated at 45° C. for 600 seconds prior to addition of PLA2. The characteristic burst behaviour of PLA2 towards the micelles is signalled by a sudden increase in the intrinsic fluorescence from PLA2 at 340 nm after excitation at 285 nm followed by a concomitant decrease in the 90° light scattering from the lipid suspension (Hønger et al., Biochemistry 35, 9003-9006). Samples for HPLC analysis of the amount of stearic acid generated were taken before adding PLA2 and 100 sec after the observed lag-time. […] HPLC analysis was made using a 5 μm diol column, a mobile phase composed of chloroform/methanol/water (730:230:30, v/v) and an evaporative light scattering detector (see example 2).

[2] = biological target: T2, phospholipase A2 (PLA2 from Agikistrodon piscivorus piscivorus) (Agkistrodon piscivorus piscivorus, UniProt P51972); assay: PLA2 reaction time profile, lag-time and HPLC percent hydrolysis of unilamellar liposomes; format: biochemical; conditions: FIG. 3, liposomes composed of 1-O-DPPC, after PLA2 addition
T2 construct: This PLA2 enzyme belongs to the class of low-molecular weight 14 kD secretory enzymes; from tissue; host or cells: snake venom of Agkistrodon piscivorus piscivorus
T2 sequence (P51972 1-123): T1 sequence (P51972 1-123)
Procedure: Phospholipase A2 reaction profile and lag time measurements Purified snake-venom phospholipase A2 (PLA2 from Agikistrodon piscivorus piscivorus) has been isolated according to the procedure of Maraganore et al., J. Biol. Chem. 259, 13839-13843. […] Assay conditions for the PLA2 reaction time profile shown in FIG. 2 and the lag-time and percent hydrolysis reported in Table 1 were: 0.15 mM unilamellar liposomes, 150 nM PLA2, 150 mM KCL, 10 mM HEPES (pH 7.5), 1 mM NaN3, 30 μM CaCl2, and 10 μM EDTA.
Lag-time and percent hydrolysed 1-O-DPPC at 41° C. as determined by HPLC. The lipid concentration was 0.150 mM in a 10 mM HEPES-buffer (pH=7.5).
The catalytic reaction was initiated by adding 8.9 μL of a 42 μM PLA2 (150 nM) stock solution to 2.5 ml of the thermostated liposome suspension (0.150 mM) equilibrated for 800 sec prior to addition of PLA2. The characteristic lag-burst behaviour of PLA2 towards the liposomes is signalled by a sudden increase in the intrinsic fluorescence from PLA2 at 340 nm after excitation at 285 nm followed by a concomitant decrease in the 90° light scattering from the lipid suspension (Hønger et al., Biochemistry 35, 9003-9006). […] The turnover of the PLA2 catalysed lipid hydrolysis of 1-O-DPPC to lyso-1-O-PPC was measured by HPLC (see Table 1). […]

[3] = biological target: T3, Snake venom PLA2 (Agkistrodon piscivorus piscivorus) (Agkistrodon piscivorus piscivorus, UniProt P51972); assay: PLA2-controlled calcein release across non-hydrolysable D-O-SPC target membrane (micelle or liposome carriers); format: biochemical
T3 construct: This PLA2 enzyme belongs to the class of low-molecular weight 14 kD secretory enzymes; from tissue; host or cells: snake venom of Agkistrodon piscivorus piscivorus
T3 sequence (P51972 1-123): T1 sequence (P51972 1-123)
Procedure: Multilamellar model membrane target liposomes were made in the presence of fluorescent calcein in a self-quenching concentration of 20 mM by hydrating a film of 1,2-O-dioctadecyl-sn-glycero-3-phosphatidylcholines (D-O-SPC) in a HEPES buffer solution at pH=7.5 for one hour at 10° C. above the phase transition temperature (Tm=55° C.). Unilamellar liposomes were made by extruding the multilamellar liposomes ten times through two stacked 100 nm polycarbonate filters. The unilamellar liposomes were rapidly cooled to a temperature below the transition temperature, and the calcein-containing liposomes were separated from free calcein using a chromatographic column packed with Sephadex G-50. […] (1-O-DPPE-PEG350), di-octadecanoyl-sn-glycero-3-phosphoethanolamine-N-[methoxy(polyethylene glycol)-750 (DSPE-PEG750). were prepared as described in example 6. Calcein release from the target liposomes is determined by measuring the fluorescent intensity at 520 nm after excitation at 492 nm.
The concentrations of D-O-SPC and polymer-lipid micelles were 25 μM. Snake venom PLA2 (Agkistrodon piscivorus piscivorus) was added (25 nM) to initiate the hydrolytic reaction leading to instant formation of the polymer-lyso-1-O-DPPE and the free fatty acid hydrolysis products. […] The percentage of calcein released is determined as described in example 3.
The experimental model system consists of a negatively charged liposome carrier and a model target membrane. The carrier is a 100 nm unilamellar liposome made of dipalmitoyl phosphatidylcholine lipids (DPPC) with small amounts (2.5 mol %) of negatively charged lipid of the type dipalmitoyl phosphatidylethanolamine (DPPE)—PEG2000. The target membrane is another liposome made of 1,2-O-dioctadecyl-sn-glycero-phosphatidylcholine (D-O-SPC) which is a phospholipid where the acyl linkages of the stearoyl chains are ether bonds. In contrast to DPPC, D-O-SPC is inert towards PLA2-catalysed hydrolysis thereby mimicking the stability of an intact target cell membrane toward degradation by its own enzymes. This experimental assay, which permits simultaneous as well as separate investigation of the effect of destabilisers at the carrier liposomes and the effect of enhancers at the target membrane, involves entrapment of a water-soluble fluorescent calcein model drug in a self-quenching concentration, in the interior of the non-hydrolysable target liposome, rather than in the carrier liposome. The enhanced level of extracellular PLA2 at the target membrane can then be simulated by adding extracellular PLA2 to initiate the hydrolytic reaction in a suspension of the carrier and target liposomes. The permeation of calcein across the D-O-SPC target membrane is subsequently monitored by the increase in fluorescence. In order to investigate the effect of the presence of small amounts of negatively charged lipids in the carrier liposome, a similar experiment was performed with conventional bare DPPC liposomes. Furthermore, in order to compare and discriminate the permeability enhancing effect of lyso-phospholipids from that of free fatty acids, experiments without enzymes were carried out where lyso-phospholipids and free fatty acids were added simultaneously or separately to the target liposomes.
DPPC, DCPC, D-O-SPC, and DPPE-PEG2000 were obtained from Avanti Polar Lipids. Purified snake venom PLA2 (Agkistrodon piscivorus piscivorus) was a generous gift from dr. R. L. Biltonen. This PLA2 enzyme belongs to the class of low-molecular weight, 14 kD secretory enzymes which display structural similarity to human extracellular phospholipase A2.

[4] = Calcein release across target membrane on adding lyso-phospholipid and fatty acid in the absence of PLA2; conditions: absence of PLA2, 25 μM target membranes, 39° C., FIG. 12
From the text: The experimental model system consists of a negatively charged liposome carrier and a model target membrane. The carrier is a 100 nm unilamellar liposome made of dipalmitoyl phosphatidylcholine lipids (DPPC) with small amounts (2.5 mol %) of negatively charged lipid of the type dipalmitoyl phosphatidylethanolamine (DPPE)—PEG2000. The target membrane is another liposome made of 1,2-O-dioctadecyl-sn-glycero-phosphatidylcholine (D-O-SPC) which is a phospholipid where the acyl linkages of the stearoyl chains are ether bonds. In contrast to DPPC, D-O-SPC is inert towards PLA2-catalysed hydrolysis thereby mimicking the stability of an intact target cell membrane toward degradation by its own enzymes. […] The permeation of calcein across the D-O-SPC target membrane is subsequently monitored by the increase in fluorescence. […]
Multilamellar target liposomes in the presence of fluorescent calcein in a self-quenching concentration of 20 mM were made by hydrating a film of D-O-SPC in a HEPES buffer solution at pH=7.5 for one hour at 10° C. above the phase transition temperature Tm=55° C. […] Calcein release from the target liposomes is determined by measuring the fluorescent intensity at 520 nm after excitation at 492 nm. […]

## di-octadecanoyl-sn-glycero-3-phosphoethanolamine-N-[methoxy(polyethylene glycol)-750 [DSPE-PEG750]
[1]; 0.150 mM DSPE-PEG750 micelles, 150 nM PLA2, 45° C.
  amount of stearic acid generated by hydrolysis: 0.156 mM and 0.157 mM
[1]; 0.150 mM micelles, 150 nM PLA2, 45° C., 100 sec after lag time
  hydrolysis of DSPE-PEG750 to lyso-DSPE-PEG750 and stearic acid: 100%
[1]; DSPE-PEG750 micelles 0.150 mM, 45° C.
  observed lag time: 10 s

## CCCCCCCCCCCCCCCCOC[C@H](COP(=O)([O-])OCC[N+](C)(C)C)OC(=O)CCCCCCCCCCCCCCC [1-O-DPPC]
[2]
  amount of 1-O-DPPC after the lag-burst (HPLC; 100% before PLA2): 21%

## CCCCCCCCCCCCCCCCCCOC[C@H](COP(=O)([O-])OCC[N+](C)(C)C)OCCCCCCCCCCCCCCCCCC [D-O-SPC, 1,2-O-dioctadecyl-sn-glycero-3-phosphatidylcholines]
[3]; target membrane lipid
  behaviour towards PLA2-catalysed hydrolysis: inert

## CCCCCCCCCCCCCCCC(=O)O [fatty acid, palmitic acid]
[4]
  rate of calcein release across the target membrane, added separately: increased rate of calcein release

## CCCCCCCCCC(=O)OC[C@H](COP(=O)([O-])OCC[N+](C)(C)C)OC(=O)CCCCCCCCC [DCPC, didecanoyl phosphatidylcholine]
[3]; small amount of DCPC in carrier PEG-liposomes, FIG. 11a
  calcein release across target membrane with short-chain phospholipid in carrier PEG-liposomes: very fast

## 1—hexadecyl-2-hexadecanoyl-sn-glycero-3-phosphoethanolamine-N-[methoxy(poly-ethylene glycol)-2000] [DPPE-PEG2000]
[3]; DPPC + 2.5 mol % DPPE-PEG2000 carriers, 37° C.
  rate of release of calcein across target membrane versus bare DPPC carriers: dramatically enhanced
[3]; DPPC carrier liposomes with 2.5 mol % DPPE-PEG2000, 37° C.
  change of lag time versus bare DPPC carriers: dramatic decrease in the lag time

## CC(C)CCC[C@@H](C)[C@H]1CC[C@H]2[C@@H]3CC=C4C[C@@H](O)CC[C@]4(C)[C@H]3CC[C@]12C [cholesterol]
[3]; large amount (≈20 mol %) incorporated into liposomes, data not shown
  effect on extracellular PLA2 activity: deactivated
[3]; small amount (≈3 mol %) in liposomes
  effect on extracellular PLA2 activity: activates
